{
  "source": "paper PMC11026403",
  "about": "(Communications Biology, 2024)",
  "target": "A/Denmark/524/2009 (H1N1)pdm09 NA-H274 (Influenza A virus, UniProt C3W5S3)",
  "format": "biochemical",
  "data": [
    {"smiles": "CCC(CC)[C@H](NC(C)=O)[C@@H]1[C@H](O)[C@@H](C(=O)O)C[C@H]1N=C(N)N", "note": "[peramivir]", "values": [
      {"measurement": "IC50", "value": 0.1, "unit": "nM"}
    ]}
  ]
}
